What all share (assay type): in vivo
In test [1] the test system is larvae of the mustard beetle (Phaedon cochleariae). As to the kind of experiment: Phaedon cochleariae larvae test, foliar application on cabbage leaves. To be noted: 48 h, 60 g ai/ha, foliar spray, 2 d, read-out: Mortality in % after 2 d. The method, then: Phaedon cochleariae Larvae—Foliar Application
(§1) To produce a suitable preparation of active compound, 1 part by weight of active compound is mixed with the stated amount of solvent and emulsifier, and the concentrate is diluted with emulsifier-containing water to the desired concentration. To produce a suitable preparation of a spore suspension the spores are diluted with emulsifier-containing water to the desired concentration.
Cabbage leaves (Brassica oleracea) are treated by being sprayed with the preparation of the active compound of the desired concentration and are infested with larvae of the mustard beetle (Phaedon cochleariae) as long as the leaves are still moist.
(§2) After the specified period of time, mortality in % is determined. 100% means that all the beetle larvae have been killed; 0% means that none of the beetle larvae have been killed. The mortality values thus determined are recalculated using the Colby-formula.

In test [2] the test system is Green peach aphid (Myzus persicae). As to the kind of experiment: Myzus persicae test, foliar application on infested cabbage leaves. To be noted: 144 h, 100 g ai/ha, foliar spray, 6 d, read-out: Mortality in % after 6 d. The method, then: Myzus persicae—Foliar Application
(§3) To produce a suitable preparation of active compound, 1 part by weight of active compound is mixed with the stated amount of solvent and emulsifier, and the concentrate is diluted with emulsifier-containing water to the desired concentration. To produce a suitable preparation of a biological suspension the cells or spores are diluted with emulsifier-containing water to the desired concentration.
Cabbage leaves (Brassica oleracea) which are heavily infested by the Green peach aphid (Myzus persicae) are treated by being sprayed with the preparation of the active compound at the desired concentration.
After the specified period of time, mortality in % is determined. 100% means that all the aphids have been killed; 0% means that none of the aphids have been killed. The mortality values thus determined are recalculated using the Colby-formula.

Test [3] concerns mustard beetle larvae (Phaedon cochleariae). As to the kind of experiment: Phaedon cochleariae larvae test, spray application on Chinese cabbage leaf discs. As to conditions: foliar, 144 h, 100 g ai/ha, 6 d, read-out: Mortality in % after 6 d. On the procedure: Phaedon cochleariae Larvae—Spray Application
To produce a suitable preparation of active compound, 1 part by weight of active compound is mixed with the stated amount of solvent and emulsifier, and the concentrate is diluted with emulsifier-containing water to the desired concentration. To produce a suitable preparation of a biological suspension the cells, viruses or spores are diluted with emulsifier-containing water to the desired concentration.
Chinese cabbage (Brassica pekinesis) leaf—discs are sprayed with a preparation of the active ingredient of the desired concentration. Once dry, the leaf discs are infested with mustard beetle larvae (Phaedon cochleariae).
as §2

For test [4], the system named is larvae of the Banded Cucumber Beetle (Diabrotica balteata). As to the kind of experiment: Diabrotica balteata larvae test, soil application, corn. To be noted: 60 g ai/ha, mixed into soil, based on number of germinated corn plants. On the procedure: Diabrotica balteata Test/Larvae—Soil Application
as §1
The preparation containing the active ingredient is thoroughly mixed into the soil. […] The treated soil is filled into pots and sown with 5 corn seeds per pot. 3 days after sowing larvae of the Banded Cucumber Beetle (Diabrotica balteata) are placed in the soil.
After the desired period of time the level of activity expressed in % is determined. The level of activity is calculated on the basis of the number of corn plants which have successfully germinated. The efficacy values determined thus are recalculated using the Colby-formula.

In test [5] the test system is Green peach aphid (Myzus persicae). As to the kind of experiment: Myzus persicae test, spray application on Chinese cabbage leaf discs. As to conditions: foliar, 24 h, 20 g ai/ha, 1 d, read-out: Mortality in % after 1 d. On the procedure: Myzus persicae—Test (Spray Application)
as §3
Chinese cabbage (Brassica pekinesis) leaf—discs infected with all instars of the green peach aphid (Myzus persicae), are sprayed with a preparation of the active ingredient at the desired concentration.
After the specified period of time mortality in % is determined. 100% means that all aphids have been killed; 0% means that none of the aphids have been killed.

Test [6] has as its system Seeds of soybean (Glycine max). As to the kind of experiment: Seed treatment, germination test soybean. As to conditions: 0.3 g ai/kg seeds (head: g ai/kg seeds). The method, then: Seed Treatment—Germination Test Soybean
Seeds of soybean (Glycine max) were treated by being mixed with the desired amount of active compound and spores and water. After drying, 25 seeds were sown into each pot filled with sandy loam.
After 4 days the level of activity expressed in % was determined. The level of activity was calculated on the basis of the number of soybean plants which have successfully germinated.

This is an account of results in patent US9241493B2, “Use of an enaminocarbonyl compound in combination with a biological control agent” (BAYER INTELLECTUAL PROPERTY GMBH, priority 2011, dated 2016).

Consider `O=C1C=C(N(Cc2ccc(Cl)nc2)CC(F)F)CO1` [Compound (I-3), 4-{[(6-Chloropyrid-3-yl)methyl](2,2-difluorethyl)amino}furan-2(5H)-one], for which the mortality at 60 g/ha in test [1] amounted to 20%. Moreover, the results for the mortality at 100 g/ha in test [2] and in test [3] were 90% and 0%, respectively. For the same molecule, the “Efficacy in % after 5 d” value in test [4] came out at 75%. For the same molecule, in test [5], the mortality at 20 g/ha was found to be 0%. Besides, in test [6], the “Germination in % related to untreated control, evaluation after 4 d” value was 72.73%.
